Molecular target: T1, TRPC5 protein (Homo sapiens, UniProt Q9UL62)
T1 sequence (Q9UL62 1-973): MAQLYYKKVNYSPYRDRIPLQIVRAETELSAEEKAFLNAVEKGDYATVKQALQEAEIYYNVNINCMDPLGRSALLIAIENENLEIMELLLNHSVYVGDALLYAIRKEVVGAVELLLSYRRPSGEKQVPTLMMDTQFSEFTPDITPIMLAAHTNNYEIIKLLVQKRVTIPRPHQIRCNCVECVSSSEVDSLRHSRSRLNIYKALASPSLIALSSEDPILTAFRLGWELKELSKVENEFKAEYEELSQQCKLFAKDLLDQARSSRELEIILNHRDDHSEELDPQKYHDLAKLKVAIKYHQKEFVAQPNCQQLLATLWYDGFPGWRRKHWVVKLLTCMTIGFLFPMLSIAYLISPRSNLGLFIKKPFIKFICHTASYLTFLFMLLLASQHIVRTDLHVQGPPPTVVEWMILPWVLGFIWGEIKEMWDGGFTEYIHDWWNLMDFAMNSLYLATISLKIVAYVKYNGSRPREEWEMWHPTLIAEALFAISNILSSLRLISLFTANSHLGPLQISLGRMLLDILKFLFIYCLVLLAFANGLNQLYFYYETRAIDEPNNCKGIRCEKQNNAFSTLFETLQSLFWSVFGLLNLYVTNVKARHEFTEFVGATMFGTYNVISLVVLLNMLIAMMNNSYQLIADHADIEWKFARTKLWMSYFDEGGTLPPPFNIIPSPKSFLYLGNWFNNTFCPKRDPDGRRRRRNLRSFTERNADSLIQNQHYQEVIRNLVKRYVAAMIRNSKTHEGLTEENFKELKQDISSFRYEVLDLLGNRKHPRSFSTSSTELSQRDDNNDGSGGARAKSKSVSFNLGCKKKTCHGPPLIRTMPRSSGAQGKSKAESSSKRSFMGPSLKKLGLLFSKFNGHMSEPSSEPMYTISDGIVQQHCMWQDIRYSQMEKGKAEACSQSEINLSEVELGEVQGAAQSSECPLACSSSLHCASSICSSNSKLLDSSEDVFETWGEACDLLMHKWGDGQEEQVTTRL
Assay: MST binding to TRPC5 protein
Experimental: Preparation and labelling of protein solution: TRPC6 protein dry powder (Alomone Labs, Israel) was prepared into a protein mother solution at a concentration of 10 μM using PBS-Buffer, and 35 μL of the protein stock solution was taken to the Buffer exchange A column, and centrifuged to obtain the Tris-removed protein. 34 μL Labelling Buffer was added to the Tris-removed protein according to the instructions of the Protein Fluorescent Labelling Kit (model L001). After mixing well, 3 μL of NT-647-NHS fluorescent dye was added and thus obtained mixture was incubated for 20 minutes. The protein-dye mixture was transferred to the purification B column, 300 μL of PBS-Buffer was added, and the target protein, i.e. fluorescent labelled protein TRPC6, was collected by centrifugation (with a final concentration of about 2 μM). 180 μL of target protein was mixed with 1620 μL of PBS-Buffer, and then 9 μl of Tween-20 were added thereto. […]
The binding ability of the compounds of the present invention (as exemplified by the compounds 1-1 and 2-1 obtained in Examples 1 and 3) for other TRPC proteins (e.g., TRPC1, TRPC3, TRPC4, TRPC5, and TRPC7) was determined using the microscale thermophoresis (MST) method. […]
The affinity of the compounds of the present invention with TRPC1, TRPC3, TRPC4, TRPC5 and TRPC7 proteins, respectively, was determined by the same method as in Example 5.

| Compound | Kd for binding to TRPCS protein |
| --- | --- |
| CC(=O)OCCCNC(=O)c1c(C=O)c2ccccc2n1C [compound 1-1, propyl 3-[(3-formyl-1-methyl-1H-indole-2-carbonyl)amino]acetate] | cannot be measured |
| Cn1c(C(=O)NCCCOC(=O)c2ccccc2)c(C=O)c2ccccc21 [compound 2-1] | cannot be measured |
